# Test results taken from paper PMC11520371 (Journal of Pharmaceutical Health Care and Sciences, 2024).
# Legend:
# [1] = Plasma concentrations measured by UPLC-MSMS in the case patient; assay type: in vivo, human
# Method: The patient had pancreatic cancer and was admitted to Hirosaki University hospital to undergo a pancreatoduodenectomy. Written informed consent was obtained from this patient for the measurement of each biomarker and polymorphisms of pharmacokinetics-related genes. […] This regimen involved taking CAM 400 mg twice per day after breakfast and supper, RFP 450 mg once per day after breakfast, and ethambutol 750 mg once per day.
# [2] = cited from earlier work
# albumin = details: cited from earlier work
# [3] = tested on: P-glycoprotein (P-gp; gene code ABCB1); details: cited from earlier work
# [4] = tested on: organic anion transporting polypeptide 1B1 (OATP1B1; SLCO1B1); details: cited from earlier work
SMILES,Plasma concentration of valsartan ([1]; POD6) [ng/mL],Plasma concentration of valsartan ([1]; POD9) [ng/mL],Plasma concentration of valsartan ([1]; POD11) [ng/mL],Plasma concentration of valsartan ([1]; POD131) [ng/mL],"concentration at 10 postoperative day ([1]; male, human, plasma, POD10, read-out: Plasma concentration of valsartan) [ng/mL]","concentration at 14 postoperative day ([1]; male, human, plasma, POD14, read-out: Plasma concentration of valsartan) [ng/mL]",unchanged valsartan excreted in the urine [2] [%],"concentration at 26 h ([1]; male, human, in vivo, 30 mg/day, POD131, 26 h after last edoxaban tablet (C0h), edoxaban 30 mg/day, outpatient follow-up) [ng/mL]","concentration at 2 h ([1]; male, human, in vivo, 30 mg/day, POD233, 2 h after last edoxaban tablet (C2h), edoxaban 30 mg/day, outpatient follow-up) [ng/mL]","concentration at 24 h ([1]; male, human, in vivo, 60 mg once per day, POD9, 24 h after last edoxaban tablet (trough, C0h), edoxaban 60 mg once per day with RFP and CAM, onset of AKI) [ng/mL]","concentration at 8 h ([1]; male, human, in vivo, 60 mg once per day, POD10, 8 h after last edoxaban tablet (C8h), edoxaban 60 mg once per day with RFP and CAM, AKI) [ng/mL]","concentration at 24 h ([1]; male, human, in vivo, 60 mg once per day, POD11, 24 h after last edoxaban tablet (trough, C0h), AKI) [ng/mL]","concentration at 96 h ([1]; male, human, in vivo, 60 mg once per day, POD14, 96 h after last edoxaban tablet) [ng/mL]",albumin binding rate (albumin) [%],absorbed drug excreted in its unchanged form through the kidneys [2],bioavailability [2],substrate of P-glycoprotein [3],substrate of OATP1B1 [4]
CCCCC(=O)N(Cc1ccc(-c2ccccc2-c2nnn[nH]2)cc1)[C@H](C(=O)O)C(C)C [valsartan],2400,5700,10400,1000,9400,1400,13,–,–,–,–,–,–,–,–,–,–,–
CN1CCc2nc(C(=O)N[C@@H]3C[C@@H](C(=O)N(C)C)CC[C@@H]3NC(=O)C(=O)Nc3ccc(Cl)cn3)sc2C1 [edoxaban],–,–,–,–,–,–,–,< 5,413,131,796,116,< 5,55,approximately 50%,approximately 62%,substrate,not an OATP1B1 substrate
